Results from patent publication US20230277612A1, “SAPONIN DERIVATIVES FOR USE IN MEDICINE” (priority 2020, published 2023).
Where “and” joins values, the source holds several entries; their conditions need not be identical. Equal entries are not always repeated. Where two headings read alike, the source gives them in different places.

What was measured:
[1] = Critical micellar concentration (CMC) by ANS fluorescence; assay type: physicochemical; settings: Table A7; determined in PBS
Experimental: The critical micellar concentration (CMC) of saponins derived from Saponaria officinalis (SO) (Table A7) and derived from Quillaja saponaria (QS) (Table A8, and Table A9) was determined by the method of DeVendittis et al. (A fluorimetric method for the estimation of the critical micelle concentration of surfactants, Analytical Biochemistry, Volume 115, Issue 2, August 1981, Pages 278-286) as follows:
(§1) The emission spectrum of 8-Anilinonaphthalene-1-sulfonic acid (ANS) in either purified water (MQ) or PBS (Dulbecco's PBS+/+) was determined at dry weight concentrations of saponins ranging from 1 to 1400 pM to cover the range below and above the CMC. Above the CMC, the fluorescence yield of ANS increases and the wavelength of maximum emission decreases due to portioning of the fluorescent dye into micelles. Fluorescence yields were recorded on a Fluoroskan Ascent FL (Thermo Scientific) at an excitation wavelength of 355 nm, and an emission wavelength of 460 nm. 6 μg at a concentration of 75.86 pM of ANS were used per sample and measurement.
The critical micellar concentration (CMC) of saponins was determined by the method of DeVendittis et al. (A fluorimetric method for the estimation of the critical micelle concentration of surfactants, Analytical Biochemistry, Volume 115, Issue 2, August 1981, Pages 278-286) as follows:
as §1, with “μM” for “pM”

[2] = system: EGFR expressing cells (HeLa); assay type: cell-based
human red blood cells = assay: cells; assay type: cell-based
Experimental: Red blood cells (RBCs) were isolated from a buffy coat using a Ficoll gradient. The obtained RBC pellet (˜4-5 ml) was washed 2× with 50 ml DPBS (without Ca^2+/Mg^2+, PAN-Biotech GmbH). Cells were pelleted by centrifugation for 10 min, 800×g at RT. RBC were counted and resuspended at 500.000.000 c/ml in DPBS (without Ca^2+/Mg^2+), based on total cell count.
(§2) Saponin dilutions were prepared in DPBS (with Ca^2+/Mg^2+, PAN-Biotech GmbH), at 1.11× final strength. For positive lysis control a 0.02% Triton-X100 solution was prepared in DPBS^+/+. Of all compound solutions 135 μl was dispensed/well in a 96 well V-bottom plate. To this 15 μl RBC suspension was added and mixed shortly (10 sec-600 rpm). The plate was incubated 30 min at RT, with gentle agitation. Afterwards the plate was spun for 10 min at 800×g to pellet the RBC and 100-120 μl supernatant was transferred to a standard 96 wp (96 well-plate).
as §2, with “DPBS+/+.” for “DPBS^+/+.”

HeLa cells = assay: cells; assay type: cell-based
Experimental: (§3) (FIGS. 66a and 66B). Next toxicity was determined, for this the modified saponins were titrated on HeLa and A431 cells. […] Next toxicity was determined, for this the modified saponins were titrated on HeLa and A431 cells.

A431 cells = assay: cells; assay type: cell-based
Experimental: as §3

[3] = system: EGFR expressing cells (A431); assay type: cell-based
[4] = HeLa, + 5 pM EGFdianthin, read-out: IC50 endosomal escape enhancing activity
[5] = Table A5, read-out: IC50 nM (hemolysis)
[6] = Table A6, read-out: IC50 nM (hemolysis)
[7] = read-out: IC50 hemolytic activity
[8] = Table A5, saponin alone, read-out: IC50 nM (Toxicity)
[9] = Table A6, saponin alone, read-out: IC50 nM (Toxicity)
[10] = A431, + 5 pM EGFdianthin, read-out: IC50 endosomal escape enhancing activity
[11] = saponin alone, read-out: IC50 toxicity
[12] = Table A5, HeLa cells, saponin titrated + 5 pM EGFdianthin, read-out: IC50 nM (Activity)
[13] = Table A6, A431 cells, saponin titrated + 5 pM EGFdianthin, read-out: IC50 nM (Activity)

Compound | CMC [1] | IC50 [2, 4] | IC50 (human red blood cells; [5]) | IC50 (human red blood cells; [6]) | IC50 (human red blood cells; [7]) | IC50 (HeLa cells; [8]) | IC50 (A431 cells; [9]) | IC50 [3, 10] | IC50 (HeLa cells; [11]) | IC50 (A431 cells; [11]) | IC50 (HeLa cells; Table A12, read-out: IC50 nM (Toxicity)) | IC50 [2, 12] | IC50 ([2]; Table A12, HeLa cells, + 5 pM EGFdianthin, read-out: IC50 nM (Activity)) | IC50 [3, 13]
CC1OC(OC2C(C)OC(OC(=O)[C@]34CCC(C)(C)CC3C3=CCC5[C@@]6(C)CC[C@H](OC7OC(C(=O)NC(C)(CO)CO)C(O)C(OC8OCC(O)C(O)C8O)C7OC7OC(CO)C(O)C(O)C7O)[C@@](C)(C=O)C6CC[C@@]5(C)[C@]3(C)C[C@H]4O)C(OC3OC(C)C(OC4OCC(O)C(OC5OC(CO)C(O)C(O)C5O)C4O)C(O)C3O)C2O)C(O)C(OC2OCC(O)C(O)C2O)C1O (some centres unmarked) [SO1861-(Ac—OH)-(Glu-AMPD)] | 90 ± 10 µM | 3000 nM | 140000 nM | 140000 nM | 140000 nM | > 100000 nM | > 100000 nM | 3000 nM |  |  |  |  |  | 
CC1OC(OC2C(C)OC(OC(=O)[C@]34CCC(C)(C)CC3C3=CCC5[C@@]6(C)CC[C@H](OC7OC(C(=O)O)C(O)C(OC8OCC(O)C(O)C8O)C7OC7OC(CO)C(O)C(O)C7O)[C@@](C)(C=O)C6CC[C@@]5(C)[C@]3(C)C[C@H]4O)C(OC3OC(C)C(OC4OCC(O)C(OC5OC(CO)C(O)C(O)C5O)C4O)C(O)C3O)C2O)C(O)C(OC2OCC(O)C(O)C2O)C1O (some centres unmarked) [SO1861-Ac—OH] | 350 ± 35 µM | 1000 nM |  |  |  |  |  | 800 nM | 10000 nM | 2000 nM |  |  |  | 
CC1OC(OC2C(C)OC(OC(=O)[C@]34CCC(C)(C)CC3C3=CCC5[C@@]6(C)CC[C@H](OC7OC(C(=O)NCCN8C(=O)C=CC8=O)C(O)C(OC8OCC(O)C(O)C8O)C7OC7OC(CO)C(O)C(O)C7O)[C@@](C)(C=O)C6CC[C@@]5(C)[C@]3(C)C[C@H]4O)C(OC3OC(C)C(OC4OCC(O)C(OC5OC(CO)C(O)C(O)C5O)C4O)C(O)C3O)C2O)C(O)C(OC2OCC(O)C(O)C2O)C1O (some centres unmarked) [SO1861-(Glu-AEM)-(Ac—OH)] | 90 ± 10 µM | 8000 nM | 100000 nM | 100000 nM | 100000 nM | > 100000 nM | > 100000 nM | 4000 nM |  |  |  |  |  | 
CC(=O)OC1C(C)OC(OC2C(C)OC(OC(=O)[C@]34CCC(C)(C)CC3C3=CCC5[C@@]6(C)CC[C@H](OC7OC(C(=O)NC(C)(CO)CO)C(O)C(OC8OCC(O)C(O)C8O)C7OC7OC(CO)C(O)C(O)C7O)[C@@](C)(CO)C6CC[C@@]5(C)[C@]3(C)C[C@H]4O)C(OC3OC(C)C(OC4OCC(O)C(OC5OC(CO)C(O)C(O)C5O)C4O)C(O)C3O)C2O)C(O)C1OC1OCC(O)C(O)C1O (some centres unmarked) [SO1861-(Ald-OH)-(Glu-AMPD)] | 50 ± 5 µM | 4000 nM |  |  |  | > 100000 nM | > 100000 nM | 4000 nM |  |  |  |  |  | 
CC[C@H](C)[C@H](C[C@H](O)CC(=O)OC1C(C)OC(OC(=O)[C@]23CCC(C)(C)CC2C2=CCC4[C@@]5(C)CC[C@H](OC6OC(C(=O)O)C(O)C(OC7OCC(O)C(O)C7O)C6OC6OC(CO)C(O)C(O)C6O)[C@@](C)(/C=N/NC(=O)CCCCCN6C(=O)C=CC6=O)C5CC[C@@]4(C)[C@]2(C)C[C@H]3O)C(OC2OC(C)C(OC3OCC(O)C(OC4OCC(O)(CO)C4O)C3O)C(O)C2O)C1O)OC(=O)C[C@@H](O)C[C@H](OC1OC(CO)C(O)C1O)[C@@H](C)CC (some centres unmarked) [QS21-Ald-EMCH] |  | 900 nM |  |  |  |  |  | 900 nM |  |  | > 30000 nM |  |  | 
CC1OC(OC2C(C)OC(OC(=O)C34CCC(C)(C)CC3C3=CCC5C6(C)CCC(OC7OC(C(=O)O)C(O)C(OC8OCC(O)C(O)C8O)C7OC7OC(CO)C(O)C(O)C7O)C(C)(C=NNC(=O)CCCCCN7C(=O)C=CC7=O)C6CCC5(C)C3(C)CC4O)C(OC3OC(C)C(OC4OCC(O)C(OC5OC(CO)C(O)C(O)C5O)C4O)C(O)C3O)C2O)C(O)C(OC2OCC(O)C(O)C2O)C1O (centres unmarked) [SO1861-(Ald-EMCH)-(Ac—OH)] | >300 µM | 8000 nM | > 1e+06 nM | > 1e+06 nM |  | > 100000 nM | > 100000 nM | 10000 nM |  |  |  |  |  | 
QS21 [reference compound] |  | 200 nM |  |  |  |  |  | 90 nM | 6000 nM and 10000 nM |  |  | 200 nM | 200 nM | 
CC1OC(OC2C(C)OC(OC(=O)C34CCC(C)(C)CC3C3=CCC5C6(C)CCC(OC7OC(C(=O)NC(C)(CO)CO)C(O)C(OC8OCC(O)C(O)C8O)C7OC7OC(CO)C(O)C(O)C7O)C(C)(C=NNC(=O)CCCCCN7C(=O)C=CC7=O)C6CCC5(C)C3(C)CC4O)C(OC3OC(C)C(OC4OCC(O)C(OC5OC(CO)C(O)C(O)C5O)C4O)C(O)C3O)C2O)C(O)C(OC2OCC(O)C(O)C2O)C1O (centres unmarked) [SO1861-(Ald-EMCH)-(Ac—OH)-(Glu-AMPD)] |  |  | > 1e+06 nM | > 1e+06 nM |  | > 100000 nM | > 100000 nM |  |  |  |  | > 20000 nM |  | > 20000 nM
CC(=O)OC1C(C)OC(OC2C(C)OC(OC(=O)C34CCC(C)(C)CC3C3=CCC5C6(C)CCC(OC7OC(C(=O)NC(C)(CO)CO)C(O)C(OC8OCC(O)C(O)C8O)C7OC7OC(CO)C(O)C(O)C7O)C(C)(C=NNC(=O)CCCCCN7C(=O)C=CC7=O)C6CCC5(C)C3(C)CC4O)C(OC3OC(C)C(OC4OCC(O)C(OC5OC(CO)C(O)C(O)C5O)C4O)C(O)C3O)C2O)C(O)C1OC1OCC(O)C(O)C1O (centres unmarked) [SO1861-(Ald-EMCH)-(Glu-AMPD)] | >30 µM |  | > 1e+06 nM | > 1e+06 nM |  | > 100000 nM | > 100000 nM |  |  |  |  |  |  | 
CC(=O)OC1C(C)OC(OC2C(C)OC(OC(=O)[C@]34CCC(C)(C)CC3C3=CCC5[C@@]6(C)CC[C@H](OC7OC(C(=O)O)C(O)C(OC8OCC(O)C(O)C8O)C7OC7OC(CO)C(O)C(O)C7O)[C@@](C)(CO)C6CC[C@@]5(C)[C@]3(C)C[C@H]4O)C(OC3OC(C)C(OC4OCC(O)C(OC5OC(CO)C(O)C(O)C5O)C4O)C(O)C3O)C2O)C(O)C1OC1OCC(O)C(O)C1O (some centres unmarked) [SO1861-Ald-OH] | 135 ± 14 µM | 600 nM | 30000 nM | 30000 nM | 30000 nM | > 100000 nM |  | 600 nM |  | 7000 nM |  |  |  | 
CC1OC(OC2C(C)OC(OC(=O)[C@]34CCC(C)(C)CC3C3=CCC5[C@@]6(C)CC[C@H](OC7OC(C(=O)NC(C)(CO)CO)C(O)C(OC8OCC(O)C(O)C8O)C7OC7OC(CO)C(O)C(O)C7O)[C@@](C)(CO)C6CC[C@@]5(C)[C@]3(C)C[C@H]4O)C(OC3OC(C)C(OC4OCC(O)C(OC5OC(CO)C(O)C(O)C5O)C4O)C(O)C3O)C2O)C(O)C(OC2OCC(O)C(O)C2O)C1O (some centres unmarked) [SO1861-(Ald-OH)-(Ac—OH)-(Glu-AMPD)] | 120 ± 12 µM |  | > 1e+06 nM | > 1e+06 nM |  | > 100000 nM | > 100000 nM |  |  |  |  | > 20000 nM |  | > 20000 nM
CC(=O)OC1C(C)OC(OC2C(C)OC(OC(=O)[C@]34CCC(C)(C)CC3C3=CCC5[C@@]6(C)CC[C@H](OC7OC(C(=O)NCCN8C(=O)C=CC8=O)C(O)C(OC8OCC(O)C(O)C8O)C7OC7OC(CO)C(O)C(O)C7O)[C@@](C)(CO)C6CC[C@@]5(C)[C@]3(C)C[C@H]4O)C(OC3OC(C)C(OC4OCC(O)C(OC5OC(CO)C(O)C(O)C5O)C4O)C(O)C3O)C2O)C(O)C1OC1OCC(O)C(O)C1O (some centres unmarked) [SO1861-(Glu-AEM)-(Ald-OH)] | 90 ± 10 µM | 40000 nM | > 1e+06 nM | > 1e+06 nM |  | > 100000 nM | > 100000 nM | 20000 nM |  |  |  |  |  | 
